Data set [1] concerns atherosclerosis in ApoE knock out mouse on high fat diet. From the text:
10 ApoE ko mice were fed with regular chow diet and used as negative control group. 50 ApoE ko mice were fed with high fat diet (35% kcal fat, 1% cholesterol) for 8 weeks, and then the plasma samples were collected for lipid profile measurement before the treatment. 50 ApoE ko mice were assigned into 5 groups based on the fasting overnight plasma TC and HDL level.
5.2. Study Timeline: • 23 Dec. 2011: 60 ApoE mice arrived at chempartner and were housed in the animal facility in the building #3 for the acclimation. • 6 Jan. 2012: Measured the body weight for each mouse. 50 mice were fed with high fat diet and 10 mice were fed with normal chow diet. • 2 Mar. 2012: All mice were fasted over night and plasma samples (about 300 ul whole blood) were collected for lipid profile measurement before treatment with RAAS antibody. • 19 Mar. 2012 to 6 Apr. […] 2012: All mice were fasted over night and plasma sample for each mouse (about 300 ul whole blood) was collected for lipid profile measurement after 16 weeks treatment. Blood glucose was also measured for each mouse. • 9 Jul. 2012: The study was terminated after 16 weeks treatment. Measure BW, sacrificed each mouse, dissected the aorta, heart, liver and kidney and fixed them in 4% PFA.
Antibody products were administrated by intraperitoneal injection every two days (Monday, Wednesday, and Friday). and the positive compound was administered by p.o every day.
The body weight was weighed weekly during the period of treatment. The fasting overnight blood glucose was measured at the end of study by Roche glucometer.
About 300 ul of blood sample was collected from the orbital vein for each mouse and centrifuged at 7000 rpm for 5 min at 4E and the plasma lipid profile was measured by Roche Modular automatic biochemistry analyzer in DaAn Medical Laboratory
After RAAS antibody products treatment for 16 weeks, all mice were sacrificed. Measured body weight and collected blood sample for each mouse. Weighed liver weight and saved a tiny piece of liver into 4% paraformaldehyde (PFA) fixation solution for further analysis. At same time, take the photos with heart, lung, aortas and two kidneys.
5.8. Oil Red Staining Procedure: • 1. Sacrificed the mice and dissected the heart, aorta, and arteries under dissecting microscope. • 2. Briefly wash with PBS and fixed in 4% paraformaldehyde (PFA) overnight at 4[…]. • 3. Rinse with 60% isopropanol • 4. Stain with freshly prepared Oil Red O working solution 10 min. • 1). Oil red O stock stain: 0.5% powder in isopropanol • 2). Working solution: dilute with distilled water (3:2) and filter with membrane (0.22 um) • 5. Rinse with 60% isopropanol 10 second. • 6. Dispel the adherent bit fat outside of the aorta under the dissecting microscope. • 7. Cut the vascular wall gently and keep the integrated arteries using the micro scissors. • 8. Unfold the vascular inner wall with the cover slides and fix it by water sealing tablet.
Scanning the glasses slides with the Aperio ScanScope system and analyze with the image proplus software to measure the area of atherosclerotic plaque lesion. The results were expressed as the percentage of the total aortic surface area covered by lesions. The operation procedure of software was briefly described as follow: Converted the sys version photos into JPG version, then calibrated it and subsequently selected the red regions and then calculate the total area automatically by image proplus software.
The results were expressed as the Mean±SEM and statistically evaluated by student's t-test.

Data set [2] concerns SK-OV-3-luc ovarian cancer. Briefly: Ovarian cancer survival in mice. In kind it is in vivo. The note with it: group mean, study still ongoing. From the text: Ovarian cancer study has been conducted at Wuxi AppTec under Dr. Yong Cang and the study is still ongoing as of Aug. 4, 2013. However in order to show the comparison mean days of the death of the mice in each group to compare with the positive drug group which has 76.8 days.
Bioluminescent images of RAAS-20120628-SK-OV-3-luc for all groups.
At day 63 after ovarian cancer has started an experiment of Kieu Hoang AFCC TM by oral application of four mice left from the entire group. That means that by day 63 ovarian cancer has already developed. In the beginning we forced the mice to drink without water, therefore the mice died in early stage.

Consider human Apolipoprotein AI [APOAI], for which, in data set [1] (16 week treatment), the “plasma HDL” value is recorded as “mild trend to decrease the HDL level”. Moreover, in data set [1] (16 weeks), the “plaque area and percentage of plaque area from root to right renal artery” value is on record as “no significant difference”; the “plaque area and percentage of plaque area in arterial arch area” value was “No significant difference”; the “plaque area and percentage of plaque area in total inner vascular area” value was “No significant difference”. For the same substance, in data set [1] (16 weeks treatment), the lipid profile result is recorded as “did not affect the lipid profile” and the “plasma TG level” value is listed as “no effect”. Also, in data set [1] (16 weeks treatment, atorvastatin 40 mg/kg), the “plaque lesion area of aorta” value is on record as “did not reduce the plaque lesion area of aorta”. In addition, in data set [1] (after 15 doses, i.p. daily on weekdays), the “deaths in treatment groups” value is listed as “several mice died in the treatment groups”. Besides, the “body weight vs vehicle group” value in data set [1] (mouse, in vivo) is given as “no significant difference”. Moreover, in data set [2], the “Mean Survival Time” value is 115.8 days.

The values are drawn from US20170266266A1, “Functions of 55 Newfound Proteins and Their Medicinal Application in the Treatment and Prevention of Disease” (priority 2012, published 2017).
